According to patent US9328128B2 (priority 2010, dated 2016):

Legend:
[1] = target: T1, intestinal Na-phosphate cotransporter (Rattus norvegicus, UniProt Q9JJ09); format: biochemical
T1 sequence (Q9JJ09 1-695): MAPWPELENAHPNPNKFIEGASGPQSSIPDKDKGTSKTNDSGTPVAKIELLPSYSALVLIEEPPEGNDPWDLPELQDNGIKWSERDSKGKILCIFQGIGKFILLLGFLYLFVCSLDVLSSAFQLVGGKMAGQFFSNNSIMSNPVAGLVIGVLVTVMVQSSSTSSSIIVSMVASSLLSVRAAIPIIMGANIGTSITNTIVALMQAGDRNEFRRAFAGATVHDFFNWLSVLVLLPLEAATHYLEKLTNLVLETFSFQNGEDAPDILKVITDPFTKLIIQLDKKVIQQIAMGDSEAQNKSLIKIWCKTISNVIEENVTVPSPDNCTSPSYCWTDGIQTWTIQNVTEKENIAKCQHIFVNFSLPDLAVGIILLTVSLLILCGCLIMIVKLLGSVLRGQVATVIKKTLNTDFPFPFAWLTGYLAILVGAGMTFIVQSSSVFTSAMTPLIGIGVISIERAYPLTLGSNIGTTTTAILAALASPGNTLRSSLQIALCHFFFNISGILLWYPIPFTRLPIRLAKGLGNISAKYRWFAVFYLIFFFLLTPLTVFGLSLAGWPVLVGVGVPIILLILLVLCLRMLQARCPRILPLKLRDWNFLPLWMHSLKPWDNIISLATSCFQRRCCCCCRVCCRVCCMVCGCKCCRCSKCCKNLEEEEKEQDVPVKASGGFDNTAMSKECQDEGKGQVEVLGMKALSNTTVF

[2] = test system: intestinal BBMV phosphatases; format: biochemical
rat alkaline phosphatase = assay: p-nitrophosphate hydrolysis by rat alkaline phosphatase; format: biochemical
Description: The results shown in Example A used a 3-second exposure of vesicles and substrates and a 5 minute exposure of vesicles to 2′-FPP. Prior exposure and degradation of 2′-PP in contrast to 2′-FPP could be contributing to the increased potency of 2′-FPP as compared to 2′-PP. To examine this possibility the effect of phosphophloretins on p-nitrophosphate hydrolysis by rat alkaline phosphatase and intestinal BBMV phosphatases was examined.

[3] = target: T2, intestinal brush border membrane Na/phosphate cotransporter, NaPi 2b (Rattus norvegicus, UniProt Q9JJ09); assay: cell-based; format: cell-based
T2 construct: Rat duodenum/jejunum intestinal strips 1 cm square were incubated in DMEM; from tissue; host or cells: rat duodenum/jejunum intestinal strips
T2 sequence (Q9JJ09 1-695): T1 sequence (Q9JJ09 1-695)

Glucose uptake = format: cell-based, rat
[4] = rat, in vivo
[5] = rat, in vivo; remark: listed apart in the source
[6] = target: T1, intestinal Na-phosphate cotransporter; format: biochemical; set-up: other: intestinal BBMV; 3-second exposure of vesicles and substra; 2′-FPP vs 2′-PP; conditions: read-out: IC50 for inhibition of Na-dependent phosphate uptake

## O=C(CCc1ccc(O)cc1)c1c(O)cc(O)cc1OP(=O)(O)O
[1]
  decrease of IC50 on addition of alkaline phosphatase inhibitors: 34%
[2]
  inhibition of intestinal BBMV phosphatase activity: approximately 50%
Rat alkaline phosphatase
  inhibition of alkaline phosphatase activity, compared with 2′-FPP: better inhibitor
[3]
  IC50: 15 µM
  Maximum inhibition of total phosphate absorption: 43±6%
  inhibition of phosphate uptake: 40%
  inhibition of phosphate uptake 6 hours post-drug exposure: less than 35%
Glucose uptake
  Glucose uptake: unaffected
[4]
  change in serum Ca2+: no change
  decrease in serum phosphorus: 30%
[5]
  side effects: no side effects
[6]
  IC50: 0.046 µM
